# Experimental data reported in patent US8133729B2, “Biomimetic urothelium” (The University of York, priority 2002, dated 2012).
# “Also recorded” adds a separate entry of the source.
# Key:
# [1] = target: T1, amiloride-sensitive sodium channels (Homo sapiens, UniProt P37088+P51168+P51170); experiment: Polarised sodium ion channel distribution: short circuit current and transepithelial potential difference on amiloride exposure; assay type: cell-based
# T1 construct: The exposure of the apical surface of the urothelial tissue to amiloride reduced both the voltage and the current; endogenous in cells; host or cells: in vitro cultured, differentiated human urothelial cell sheet
# Experimental: (§1) Polarised Sodium Ion Channel Distribution. In order to determine the presence and correct spatial location of sodium ion channels, short circuit current and transepithelial potential difference were measured under voltage and current clamped conditions respectively.
# Na^+—K^+ ATPase = experiment: Short circuit current and transepithelial potential difference on ouabain exposure; assay type: cell-based, human
# Experimental: as §1
# [2] = exposure of basal surface of in vitro cultivated urothelium
# [3] = exposure of apical surface of in vitro cultivated urothelium
# T1 sequence (P51170 whole entry): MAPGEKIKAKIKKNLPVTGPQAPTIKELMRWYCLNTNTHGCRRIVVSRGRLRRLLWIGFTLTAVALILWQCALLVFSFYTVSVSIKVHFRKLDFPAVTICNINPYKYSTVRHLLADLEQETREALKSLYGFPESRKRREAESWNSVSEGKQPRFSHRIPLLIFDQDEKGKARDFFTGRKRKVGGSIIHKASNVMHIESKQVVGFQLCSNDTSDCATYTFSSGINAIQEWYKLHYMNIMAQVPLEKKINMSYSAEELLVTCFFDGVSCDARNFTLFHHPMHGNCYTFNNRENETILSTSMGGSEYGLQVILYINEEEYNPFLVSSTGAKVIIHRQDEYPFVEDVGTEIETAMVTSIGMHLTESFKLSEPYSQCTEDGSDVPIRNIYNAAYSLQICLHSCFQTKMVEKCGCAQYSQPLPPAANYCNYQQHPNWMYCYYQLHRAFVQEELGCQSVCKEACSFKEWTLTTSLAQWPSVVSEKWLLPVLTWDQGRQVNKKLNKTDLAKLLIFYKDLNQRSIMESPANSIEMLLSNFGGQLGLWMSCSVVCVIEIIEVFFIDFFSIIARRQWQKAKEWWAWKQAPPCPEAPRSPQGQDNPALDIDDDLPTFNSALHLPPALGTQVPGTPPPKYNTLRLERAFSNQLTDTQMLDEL
# T1 sequence (P37088 whole entry): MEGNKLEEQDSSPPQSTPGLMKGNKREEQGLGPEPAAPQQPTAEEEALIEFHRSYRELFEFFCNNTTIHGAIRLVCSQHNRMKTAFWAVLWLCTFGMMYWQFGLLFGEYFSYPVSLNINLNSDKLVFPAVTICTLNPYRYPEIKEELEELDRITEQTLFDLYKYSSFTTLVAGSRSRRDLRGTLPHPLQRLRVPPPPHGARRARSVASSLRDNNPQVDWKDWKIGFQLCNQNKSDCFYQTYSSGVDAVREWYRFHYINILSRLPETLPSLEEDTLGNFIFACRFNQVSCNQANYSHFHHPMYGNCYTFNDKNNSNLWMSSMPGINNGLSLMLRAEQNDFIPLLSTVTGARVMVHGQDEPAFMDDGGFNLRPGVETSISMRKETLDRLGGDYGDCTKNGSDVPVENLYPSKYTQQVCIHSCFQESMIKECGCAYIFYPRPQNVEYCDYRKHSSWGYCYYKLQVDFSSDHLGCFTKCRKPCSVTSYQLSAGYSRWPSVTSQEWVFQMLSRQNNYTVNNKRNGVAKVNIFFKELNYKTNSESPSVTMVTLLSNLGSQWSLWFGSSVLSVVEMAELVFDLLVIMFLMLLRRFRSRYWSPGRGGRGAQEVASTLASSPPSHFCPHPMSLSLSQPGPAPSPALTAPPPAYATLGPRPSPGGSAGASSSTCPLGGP
# T1 sequence (P51168 whole entry): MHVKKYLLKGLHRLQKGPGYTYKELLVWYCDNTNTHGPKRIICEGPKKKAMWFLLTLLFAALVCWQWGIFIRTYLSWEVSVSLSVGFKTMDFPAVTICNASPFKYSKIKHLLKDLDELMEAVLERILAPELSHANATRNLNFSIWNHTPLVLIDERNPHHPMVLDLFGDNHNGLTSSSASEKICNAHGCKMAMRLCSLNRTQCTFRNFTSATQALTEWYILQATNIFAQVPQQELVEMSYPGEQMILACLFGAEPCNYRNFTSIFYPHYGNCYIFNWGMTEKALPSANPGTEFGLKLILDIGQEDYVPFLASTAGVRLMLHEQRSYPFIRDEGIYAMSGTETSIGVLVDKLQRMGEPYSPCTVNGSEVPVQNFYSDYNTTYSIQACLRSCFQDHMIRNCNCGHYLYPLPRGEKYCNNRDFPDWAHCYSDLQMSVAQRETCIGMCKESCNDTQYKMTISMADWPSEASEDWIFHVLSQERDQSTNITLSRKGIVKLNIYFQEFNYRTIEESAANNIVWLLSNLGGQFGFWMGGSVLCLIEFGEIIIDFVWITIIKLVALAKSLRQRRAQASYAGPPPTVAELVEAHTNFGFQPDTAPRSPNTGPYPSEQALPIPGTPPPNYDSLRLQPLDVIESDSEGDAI
SMILES,"effect on transepithelial potential difference (voltage) ([1]; exposure of apical surface of in vitro cultivated urothelium, current clamped)","effect on short circuit current ([1]; exposure of apical surface of in vitro cultivated urothelium, voltage clamped)","effect on short circuit current [1, 2]","effect on transepithelial potential difference (voltage) [1, 2]",effect on short circuit current (Na^+—K^+ ATPase; [3]),effect on transepithelial potential difference (voltage) (Na^+—K^+ ATPase; [3]),effect on short circuit current (Na^+—K^+ ATPase; [2]),effect on transepithelial potential difference (voltage) (Na^+—K^+ ATPase; [2])
N=C(N)NC(=O)c1nc(Cl)c(N)nc1N [amiloride],reduced both the voltage and the current in a dose-dependent manner,dose-responsive decrease in short circuit current; also recorded: reduced both the voltage and the current in a dose-dependent manner,did not affect either the voltage or the current,did not affect either the voltage or the current,,,,
C[C@@H]1O[C@@H](O[C@H]2C[C@@H](O)[C@]3(CO)[C@H]4[C@H](O)C[C@]5(C)[C@@H](C6=CC(=O)OC6)CC[C@]5(O)[C@@H]4CC[C@]3(O)C2)[C@H](O)[C@H](O)[C@H]1O [ouabain],,,,,only a minor effect on the measured voltage and current,only a minor effect on the measured voltage and current,marked reduction of both voltage and current,marked reduction of both voltage and current
